According to patent US7985745B2, “Method for pain treatment” (Abbott Laboratories, priority 2006, dated 2011):

System: osteoarthritis pain
Experiment: MIA-induced knee joint osteoarthritis model, hind limb grip force
Assay type: in vivo, rat
Conditions: grip force 20 days after MIA, % return to normalcy vs naïve group
Protocol: Unilateral knee joint osteoarthritis was induced in rats by a single intra-articular (i.a.) injection of sodium monoiodoacetate (MIA) (Sigma-Aldrich, St. Louis, Mo.) (3 mg in 50 ul sterile isotonic saline) into the right knee joint cavity under light (1-3%) isoflurane anesthesia.
Pain behavior was assessed by measurement of hind limb grip force (GF) in adult osteoarthritic rats. Following the unilateral injection of MIA (male Sprague Dawley, 325-350 g, tested at 20 days following MIA injection), a behavioral measure of activity-induced pain was carried out. Measurements of the peak hind limb grip force were conducted by recording the maximum compressive force (CFmax), in grams of force, exerted on a hind limb strain gauge setup, in a commercially available grip force measurement system (Columbus Instruments, Columbus, Ohio).
During testing, each rat was gently restrained by grasping it around its rib cage and then allowed to grasp the wire mesh frame attached to the strain gauge. The experimenter then moved the animal in a rostral-to-caudal direction until the grip was broken. Each rat was sequentially tested twice at approximately 2-3 min interval to obtain a raw mean grip force (CFmax). This raw mean grip force data was in turn converted to a maximum hindlimb cumulative compressive force (CFmax), as the grams of force/kg of body weight, for each animal.
For evaluating the compound effects, the hind limb grip force was conducted 20 days following the intra-articular injection of MIA. A group of age-matched naïve (not injected with MIA) animals was added as a comparator to the drug-dosed groups. The vehicle control response for each group of MIA-treated animals was defined as the 0% response (0% effect), whereas the naïve control group was defined as the normal response and as 100% effect. The % effects for each dose group was expressed as % return of response to normalcy, compared to the naïve group. That is, the % effect=(Treatment CFmax−Vehicle CFmax)/[…]]×100). All experiments evaluating drug effects in this model were conducted in a randomized blinded fashion.

CN1CCN(C(=O)c2cc3cc(Cl)ccc3[nH]2)CC1 [Example 3, reference compound]
% Effect (100 micromole/kg i.p.): 21% | % Effect (250 micromole/kg i.p.): 47%
